Patent US20180303863A1, “Pharmaceutical Composition for Treating STK11-Mutation Cancer Using Cardiac Glycosides” (INDUSTRY-ACADEMIC COOPERATION FOUNDATION SOOKMYUNG WOMEN'S …, priority 2014, published 2018)

Experiments:
[1] = test system: STK11-mutant lung cancer cell lines (A549, H460, H1993, H1395) and STK11-wild-type lung cancer cell lines (H226, H322M, H82, H524); experiment: Cell viability (CellTiter-Blue) in STK11-mutant and STK11-wild-type lung cancer cell lines; assay type: cell-based; conditions: varying concentration, 72 hours; FIG. 5A
Experimental: NCI-60 lung cancer cell lines (NCI-H460, A549, NCI-H322M, and NCI-H226) were obtained from the U.S. National Cancer Institute (NCI DTP). All cells were grown in an RPMI medium (GIBCO) supplemented with 10% FBS (GIBCO) and penicillin/[…] (GIBCO), and kept at 37° C. in a humidified atmosphere of 5% CO2.
A total of three cardiac glycosides (chemicals) having the structures shown in FIG. 1 were screened in a lung cancer cell line. Digoxin, ouabain, and digitoxin were all purchased from Sigma Aldrich.
(§1) The cells were seeded in 96-well plates at a density of 2,000, 1,000, and 200 cells per well, and cultured for 3, 7, and 14 days, respectively. After 24 hours of seeding, the cells were treated with a chemical diluted with digitoxin and ouabain at working concentrations of 0.05 μM and 0.02 μM, respectively. The cells were again cultured for 72 hours (3 days), 7 days, and 14 days, and then the cell viability was measured using a CellTiter-Blue assay kit.

[2] = test system: STK11 mutant cell lines (NCI60 panel); experiment: CLEA enrichment analysis of GI50 profiles on the NCI60 panel by STK11 genotype; assay type: cell-based; conditions: MOLT-4, A549, NCI-H460, NCI-H23, SK-MEL-5, DU-145, FIG. 3A
Experimental: To identify sensitivity patterns of the genotype-specific compounds, a subset of the compounds was selected using a GI50 profile pattern on a CLEA map.
First of all, a −logGI50 value of 8 (that is, GI50=0.01 μM) was chosen as a bipartite cutoff used to determine to which cell lines a compound was sensitive on a NCI60 panel. In this case, the compound was sensitive when the value is greater than 8, and was not sensitive when the value is less than 8.
Next, an enrichment score (an AUC value) was used to select the genotype-specific compounds in a CLEA assay.
An AUC value >80 and a P value <0.01 were used as cutoff values used to determine that a compound had significant sensitivity to certain genotypes. In this example, compounds showing strong potency (that is, a −logGI50 value of 8) to at least one cell line on the NCI60 panel were included.
As a result, a total of three non-overlapping compounds satisfying the above filtering requirements were compiled. Hierarchical clustering of these selected compounds was carried out on a category of STK11 genotypes. In this example, three main groups of compounds showing uniform sensitivity based on the mutant genotypes were identified. Such a cluster of compounds were sensitive to genetic mutations in an STK11 gene.

[3] = test system: STK11-mutant cell line (A549) and cell line (A549-STK11) in which STK11 was restored into the wild type; experiment: Cell viability (CellTiter-Blue) in A549 versus the STK11-restored A549-STK11 line; assay type: cell-based; conditions: for inhibition of cell growth in lung cancer cell lines A549 and A549-STK11: 96-well plate; for response of the STK11-restored cell line compared to the STK11-mutant cell line (inhibition of cell growth, TiterBlue): FIG. 5B
Experimental: as §1
In this case, each of a STK11-mutant cell line (A549) and a cell line (A549-STK11) in which STK11 was restored into the wild type were used as the lung cancer cell line.

[4] = test system: A549 lung cancer cell line; experiment: Mouse tumor xenograft model, A549; assay type: in vivo, athymic nude mice
Experimental: (§2) After athymic nude mice (Oriental Bio Inc) were purchased, the animal model was prepared according to the standard guidelines provided by the Catholic University of Korea-Institutional Animal Care and Use Committee (CUK-IACUC). A549 or A549-LKB 1 wt were subcutaneously injected (3×10^6 cells/ml) into the above animal model, and divided into three groups: (1) an untreated control group (n=10); (2) a group in which the mice were treated with digoxin at 60 ng/kg/body weight (n=10); (3) a group in which the mice were treated with digoxin at 180 ng/kg/body weight (n=10). Digoxin or a vehicle (1.9% DMSO/10% polyethylene glycol 400/l×PBS: a total volume of 200 μl) was orally administered three times a week for 5 weeks. Then, the diameter of each tumor base was measured, and the size of a tumor was then calculated according to the following equation: Tumor size (mm^3)=(length×width×height×0.52). Also, the mice were monitored until the tumor size reached 1 cm^3, and then the mice were sacrificed, and tumors were extracted from the mice.

[5] = test system: cell line (A549-LKB1wt) in which STK11 was restored into the wild type; experiment: Mouse tumor xenograft model, A549-LKB1wt (STK11 restored); assay type: in vivo, athymic nude mice; conditions: oral, three times a week for 5 weeks, 60 or 180 ng/kg/body weight; FIG. 10B
Experimental: as §2

Row | Structure (SMILES) | inhibition of cell growth, STK11-mutant compared to STK11-wild-type lung cancer cell lines [1] | sensitivity (GI50 profile) in 6 cell lines with STK11 mutation potential [2] | inhibition of cell growth in lung cancer cell lines A549 and A549-STK11 [3] | response of the STK11-restored cell line compared to the STK11-mutant cell line (inhibition of cell growth, TiterBlue) [3] | tumor growth in the STK11-mutant model compared to the wild-type STK11-expressing model ([4]; FIGS. 10C, 10D, 10E) | growth of a tumor ([4]; oral, three times a week for 5 weeks, 60 or 180 ng/kg/body weight, FIG. 10A) | growth of a tumor [5]
1 | C[C@H]1O[C@@H](O[C@H]2[C@@H](O)C[C@H](O[C@H]3[C@@H](O)C[C@H](O[C@H]4CC[C@@]5(C)[C@H](CC[C@@H]6[C@@H]5CC[C@]5(C)[C@@H](C7=CC(=O)OC7)CC[C@]65O)C4)O[C@@H]3C)O[C@@H]2C)C[C@H](O)[C@@H]1O [digitoxin] | specifically inhibited the cell growth | relatively high sensitivity | the cell growth was inhibited | resistant |  |  | 
2 | C[C@H]1O[C@@H](O[C@H]2[C@@H](O)C[C@H](O[C@H]3[C@@H](O)C[C@H](O[C@H]4CC[C@@]5(C)[C@H](CC[C@@H]6[C@@H]5C[C@@H](O)[C@]5(C)[C@@H](C7=CC(=O)OC7)CC[C@]65O)C4)O[C@@H]3C)O[C@@H]2C)C[C@H](O)[C@@H]1O [digoxin] | specifically inhibited the cell growth | relatively high sensitivity | the cell growth was inhibited | resistant | selectively reduced | reduced in a time-dependent manner | did not have the same effect
3 | C[C@@H]1O[C@@H](O[C@H]2C[C@@H](O)[C@]3(CO)[C@H]4[C@H](O)C[C@]5(C)[C@@H](C6=CC(=O)OC6)CC[C@]5(O)[C@@H]4CC[C@]3(O)C2)[C@H](O)[C@H](O)[C@H]1O [ouabain] | specifically inhibited the cell growth | relatively high sensitivity | the cell growth was inhibited | resistant |  |  | 
